Results published in US20030017186A1, “Carboxylic acid fluorides as pesticides” (priority 1999, published 2003).

Columns and labels:
Type in all cases: in vivo
[1] = tested on: Rice weevil (Sitophilus oryzae); test: Fumigation test in glass vessel, rice weevils; conditions: SITTOR beetles; Example 7; ACF 53.0/54.6/0 g/m^3, second gas (SF) 43.6/41.4/39.8 g/m^3 (1st/2nd/3rd fumigation); 20.0/20.2/19.8 C.
Text: a2) Rice weevil (Sitophilus oryzae)=SITTOR
(§1) The test organisms, separated by species, were placed into a glass vessel measuring 30 cm×30 cm×60 cm, which was sealed with a glass lid so as to be airtight. The adults and the larvae of the mealworm beetle (Tenebrio molitor) and the broad-horned flour beetle (Gnathocerus cornutus) were placed into small glass vessels approximately 5 cm in diameter, which were closed with a gauze lid and in which they could freely move about. The larvae of the rice weevil had burrowed into seeds of grain. The wood pest larvae were inserted into small blocks of wood measuring 5 cm×2.5 cm×2 cm. The openings were sealed with wads of cotton wool. Only one each of the larvae of the house longhorn beetle (Hylotrupes bajulus) was inserted into a piece of wood, while 6-8 larvae of the common furniture beetle (Anobium punctatum) were inserted into each piece of wood.
(§2) The respective gas was then introduced into the fumigation vessel through a gas line from a gas tank that contained the specified amount of gas. After a defined time period, the fumigation vessel was purged with compressed air. The discharged gas was purified by an attached gas scrubber.
(§3) The beetles were observed until they died. This point was recorded for each species. The larvae of the wood pests as well as the larvae of the rice weevil (Sitophilus oryzae) had to be picked out of the wood or the grain to check their condition. If any of the animals were still alive, the wooden test blocks remaining in the vessel were fumigated again and were reexamined after the corresponding time span had elapsed. The same number of animals in the untreated control was also checked at each point.
(§4) The vitality of the animals was checked at certain time intervals. The beetles could be observed through the fumigation vessel. This was also true for the larvae of the mealworm beetle and the broad-horned flour beetle. The wooden test blocks of the wood pest larvae were opened with hammer and chisel. Tweezers were used to pull the rice weevil larvae out of the grain seeds. The exact time intervals and the number of the evaluated pests were documented in the test results.

[2] = tested on: Saw-toothed grain beetle (Oryzaephilus surinamensis); test: Fumigation test in glass vessel, saw-toothed grain beetles; conditions: ORYZSA beetles; Example 7; ACF 53.0/54.6/0 g/m^3, second gas (SF) 43.6/41.4/39.8 g/m^3 (1st/2nd/3rd fumigation); 20.0/20.2/19.8 C.
Text: a4) Saw-toothed grain beetle (Oryzaephilus surinamensis)=ORYZSA
as §1, §2, §3, §4

[3] = tested on: Broad-horned flour beetle (Gnathocerus cornutus) larvae; test: Fumigation test in glass vessel, broad-horned flour beetle larvae; conditions: GNATCO larvae; Example 7; ACF 53.0/54.6/0 g/m^3, second gas (SF) 43.6/41.4/39.8 g/m^3 (1st/2nd/3rd fumigation); 20.0/20.2/19.8 C.
Text: (§5) a3) Broad-horned flour beetle (Gnathocerus cornutus)=GNATCO
as §1, §2, §3, §4

[4] = tested on: Common furniture beetle (Anobium punctatum) larvae; test: Fumigation test in glass vessel, common furniture beetle larvae in wood blocks; conditions: ANOBPU larvae in wood blocks; Example 7; ACF 53.0/54.6/0 g/m^3, second gas (SF) 43.6/41.4/39.8 g/m^3 (1st/2nd/3rd fumigation); 20.0/20.2/19.8 C.
Text: b2) Common furniture beetle (Anobium punctatum)=[…]
as §1, §2, §3, §4

[5] = tested on: Mealworm beetle (Tenebrio molitor); test: Fumigation test in glass vessel, mealworm beetles; conditions: TENEMO beetles; Example 7; ACF 53.0/54.6/0 g/m^3, second gas (SF) 43.6/41.4/39.8 g/m^3 (1st/2nd/3rd fumigation); 20.0/20.2/19.8 C.
Text: (§6) a1) Mealworm beetle (Tenebrio molitor)=TENEMO
as §1, §2, §3, §4

[6] = tested on: Mealworm beetle (Tenebrio molitor) larvae; test: Fumigation test in glass vessel, mealworm beetle larvae; conditions: TENEMO larvae; Example 7; ACF 53.0/54.6/0 g/m^3, second gas (SF) 43.6/41.4/39.8 g/m^3 (1st/2nd/3rd fumigation); 20.0/20.2/19.8 C.
Text: as §6, §1, §2, §3, §4

[7] = tested on: House longhorn beetle (Hylotrupes bajulus) larvae; test: Fumigation test in glass vessel, house longhorn beetle larvae in wood blocks; conditions: HYLOBA larvae in wood blocks; Example 7; ACF 53.0/54.6/0 g/m^3, second gas (SF) 43.6/41.4/39.8 g/m^3 (1st/2nd/3rd fumigation); 20.0/20.2/19.8 C.
Text: (§7) b1) House longhorn beetle (Hylotrupes bajulus)=HYLOBA
as §1, §2, §3, §4

[8] = tested on: Broad-horned flour beetle (Gnathocerus cornutus); test: Fumigation test in glass vessel, broad-horned flour beetles; conditions: GNATCO beetles; Example 7; ACF 53.0/54.6/0 g/m^3, second gas (SF) 43.6/41.4/39.8 g/m^3 (1st/2nd/3rd fumigation); 20.0/20.2/19.8 C.
Text: as §5, §1, §2, §3, §4

[9] = tested on: House longhorn beetle (Hylotrupes bajulus); test: Fumigation test in glass vessel, house longhorn beetles; conditions: HYLOBA beetles; Example 7; ACF 53.0/54.6/0 g/m^3, second gas (SF) 43.6/41.4/39.8 g/m^3 (1st/2nd/3rd fumigation); 20.0/20.2/19.8 C.
Text: as §7, §1, §2, §3, §4

O=C(F)C(F)(F)Cl [CFACF, chlorodifluoroacetyl fluoride]
Number alive, 30 min. after 1st Fumigation [1]: 7
Number alive, 1 hr. after 1st Fumigation [1]: 7
Number alive, 3 hrs. after 1st Fumigation [1]: 0
Number dead, 30 min. after 1st Fumigation [1]: 8
Number dead, 1 hr. after 1st Fumigation [1]: 8
Number dead, 3 hrs. after 1st Fumigation [1]: 15
Number alive, 30 min. after 1st Fumigation [2]: 0
Number dead, 30 min. after 1st Fumigation [2]: 15
Number alive, 30 min. after 1st Fumigation [3]: 7
Number alive, 1 hr. after 1st Fumigation [3]: 7
Number alive, 3 hrs. after 1st Fumigation [3]: 0
Number dead, 30 min. after 1st Fumigation [3]: 8
Number dead, 1 hr. after 1st Fumigation [3]: 8
Number dead, 3 hrs. after 1st Fumigation [3]: 15
Number alive, 1 hr. after 1st Fumigation [4]: 6
Number alive, 3 hrs. after 1st Fumigation [4]: 3
Number alive, 6 hrs after 1st Fumigation [4]: 4
Number dead, 1 hr. after 1st Fumigation [4]: 0
Number dead, 3 hrs. after 1st Fumigation [4]: 3
Number dead, 6 hrs after 1st Fumigation [4]: 2
Number alive, 30 min. after 1st Fumigation [5]: 10
Number alive, 1 hr. after 1st Fumigation [5]: 10
Number alive, 3 hrs. after 1st Fumigation [5]: 10
Number alive, 6 hrs after 1st Fumigation [5]: 5
Number dead, 30 min. after 1st Fumigation [5]: 0
Number dead, 1 hr. after 1st Fumigation [5]: 0
Number dead, 3 hrs. after 1st Fumigation [5]: 0
Number dead, 6 hrs after 1st Fumigation [5]: 5
Number alive, 30 min. after 1st Fumigation [6]: 10
Number alive, 1 hr. after 1st Fumigation [6]: 10
Number alive, 3 hrs. after 1st Fumigation [6]: 0
Number dead, 30 min. after 1st Fumigation [6]: 0
Number dead, 1 hr. after 1st Fumigation [6]: 0
Number dead, 3 hrs. after 1st Fumigation [6]: 10
Number alive, 1 hr. after 1st Fumigation [7]: 5
Number alive, 3 hrs. after 1st Fumigation [7]: 5
Number alive, 6 hrs after 1st Fumigation [7]: 5
Number dead, 1 hr. after 1st Fumigation [7]: 0
Number dead, 3 hrs. after 1st Fumigation [7]: 0
Number dead, 6 hrs after 1st Fumigation [7]: 0
Number alive, 30 min. after 1st Fumigation [8]: 0
Number dead, 30 min. after 1st Fumigation [8]: 15
Number alive, 30 min. after 1st Fumigation [9]: 0
Number dead, 30 min. after 1st Fumigation [9]: 6
